Test results taken from the NIST ThermoML archive (doi:10.1016/j.jct.2004.09.014).
± gives the expanded uncertainty stated by the source.

Tests used:
[1] = 101.3 kPa, Liquid
[2] = xn = mol fraction of the nth substance listed; details: 101.3 kPa, Liquid

Row | SMILES | mass density ([1]; 293.15 K) | mass density ([1]; 298.15 K) | mass density ([1]; 303.15 K) | mass density ([1]; 308.15 K) | mass density ([1]; 313.15 K) | other results
1 | COCCOCCO [2-(2-methoxyethoxy)ethanol] | 1020.8 ± 1.4 kg/m3 | 1016.4 ± 1.4 kg/m3 | 1011.83 ± 1.5 kg/m3 | 1007.69 ± 1.5 kg/m3 | 1003.22 ± 1.5 kg/m3 | –
2 | COCCOCCOCCO [2-[2-(2-methoxyethoxy)ethoxy]ethanol] | 1047.29 ± 1.9 kg/m3 | 1042.97 ± 1.9 kg/m3 | 1038.65 ± 1.9 kg/m3 | 1034.33 ± 1.9 kg/m3 | 1030.01 ± 2 kg/m3 | –
3 | CCOC(C)(C)C [2-ethoxy-2-methylpropane] | 741.11 ± 0.61 kg/m3 | 735.59 ± 0.65 kg/m3 | 730.85 ± 0.69 kg/m3 | 725.98 ± 0.73 kg/m3 | 720.69 ± 0.77 kg/m3 | –
4 | CCOC(C)(C)C [2-ethoxy-2-methylpropane] + COCCOCCO | – | – | – | – | – | mass density ([2]; 293.15 K, x1 = 1): 741.11 ± 0.61 kg/m3; mass density ([2]; 298.15 K, x1 = 1): 735.59 ± 0.65 kg/m3; mass density ([2]; 303.15 K, x1 = 1): 730.85 ± 0.69 kg/m3; mass density ([2]; 308.15 K, x1 = 1): 725.98 ± 0.73 kg/m3; mass density ([2]; 313.15 K, x1 = 1): 720.69 ± 0.77 kg/m3
5 | CCOC(C)(C)C [2-ethoxy-2-methylpropane] + COCCOCCOCCO | – | – | – | – | – | mass density ([2]; 293.15 K, x1 = 1): 741.11 ± 0.61 kg/m3; mass density ([2]; 298.15 K, x1 = 1): 735.59 ± 0.65 kg/m3; mass density ([2]; 303.15 K, x1 = 1): 730.85 ± 0.69 kg/m3; mass density ([2]; 308.15 K, x1 = 1): 725.98 ± 0.73 kg/m3; mass density ([2]; 313.15 K, x1 = 1): 720.69 ± 0.77 kg/m3
6 | COCCO [2-methoxyethan-1-ol] | 964.88 ± 1 kg/m3 | 960.29 ± 1.1 kg/m3 | 955.76 ± 1.1 kg/m3 | 951.1 ± 1.1 kg/m3 | 946.54 ± 1.1 kg/m3 | –
7 | COCCO [2-methoxyethan-1-ol] + CCOC(C)(C)C | – | – | – | – | – | mass density ([2]; 293.15 K, x2 = 0): 964.88 ± 1 kg/m3; mass density ([2]; 298.15 K, x2 = 0): 960.29 ± 1.1 kg/m3; mass density ([2]; 303.15 K, x2 = 0): 955.76 ± 1.1 kg/m3; mass density ([2]; 308.15 K, x2 = 0): 951.1 ± 1.1 kg/m3; mass density ([2]; 313.15 K, x2 = 0): 946.54 ± 1.1 kg/m3
